Measured values taken from patent publication US5756537A (Parkash S. Gill, M.D., Inc., priority 1996, dated 1998).
Values after ≈ are worked out from the molar mass of the structure shown. “Also recorded” adds a separate entry of the source. Read-outs that look alike come from different tables or passages of the source.

Experiments:
[1] = test system: AIDS-KS spindle cell lines, KS Y-1 P105; experiment: Cell proliferation assay (cell counting, day 5 or 6); format: cell-based
Method: FIG. 1. […] At that time surviving cells were assayed by cell counting.
AIDS-KS spindle cell lines were seeded at a density of 1.0×10^4 cells/well in a 24-well plate in KS medium. […] The cell counts were performed on day 5 or 6 using a Coulter Particulate Counter (Hialeah, Fla.).

KS Y-1 cells = experiment: In vivo KS tumor model in nude mice; design: species or system Balbc/nu mouse; conditions: 10 mg/kg intraperitoneally, days 1, 5 and 9; measured day 14 and 21
Method: FIG. 2. […] Tumor size was measured on days 14 and 21.
KS cell lines that propagate in the immunodeficient mouse were treated with paclitaxel. 1.0×10^7 cells were implanted subcutaneously in each Balbc/nu (Charles River) mouse.

Kaposi's sarcoma [2] = experiment: Example 3: HIV-negative person with KS; format: in vivo, human
Source text: Patient, a very fragile person presented with KS. […] Other medical problems included hypertension, cardiac arrhythmia, congestive heart failure, and hypothyroidism.
Prior therapy included radiation therapy. The radiated areas included both feet and eye lids. […] Cytotoxic chemotherapy was given with combination chemotherapy consisting of bleomycin, vincristine and adriamycin.
Premedication included dexamethasone, diphenhydramine, and cimetidine.

Kaposi's sarcoma [3] = experiment: Example 4: person with KS; format: in vivo, human
Source text: Due to very extensive disease, a representative area of tumor was monitored.

Kaposi's sarcoma [4] = experiment: Example 5: pilot study of ten patients; format: in vivo, human; conditions: 100 mg/m^2 over 3 hr every 2 weeks
Source text: Seven of these ten patients had previously been treated with one or more previous regimens cytotoxic chemotherapy regimens. All were severely immunodeficient with history of opportunistic infection in six, advanced KS with numerous cutaneous KS lesions, involvement of visceral disease (which is generally fatal) in five.

AIDS-KS [5] = experiment: Phase II trial, strata 2 (no prior systemic chemotherapy); format: in vivo, human; conditions: 100 mg/m^2 iv every 2 weeks
Source text: Strata 2 of the study consisted of 20 patients with advanced AIDS-KS who had not received any prior systemic chemotherapy. The demographic characteristics and the results of treatment are provided below (Table 4-6).

[6] = Paclitaxel peak levels, AUC and relation to effect and side effects in KS patients; conditions: human, blood, iv
Method: (§1) This area is calculated using the equation: [formula] where λi is the exponent of the i-th exponential term, and Ci is the initial concentration of the i-th component of the curve. Curve fitting with this model yields the parameters Ci, C2, C3 λ1, λ2 and λ3. The half-lives (t1/2 s) are calculated from the equations t1/2 (α)=0.693/λ1, t1/2 (β)=0.693/λ2 and t1/2 (γ)=0.693/λ3. The total area under the curve (AUC0→.infin.)) is calculated using the linear trapezoidal method with extrapolation of the terminal phase to infinity (Clast /λ3), where Clast is the last measured concentration.
(§2) Typically, maintenance therapy is maintained for a minimum of 3-5 cycles.

Kaposi's sarcoma [7] = experiment: as above
Method: as §1, §2

Kaposi's sarcoma [8] = experiment: Clinical results with paclitaxel in KS, overall
Method: The mode or route of administration can be parenteral: e.g., intravenous; intraperitoneal; subcutaneous; oral; or topical for cutaneous tumors.
All patients had advanced KS defined by more than 25 cutaneous lesions, or presence of visceral disease, or lymphedema. Other eligibility criteria included adequate hepatic, renal, and bone marrow function defined as a bilirubin<2.0 mg/dl, GOT<x upper limit of normal, creatinine<2.1 mg/dl, granulocytes>1000/mm^3, and platelets>75,000/mm^3. Patients could not have had prior therapy for their KS within the last 2 weeks. The dosage and schedule was 100 mg/m^2 intravenously every 2 weeks.

AIDS-KS [9] = test system: AIDS-KS
bone marrow suppression [10] = conditions: human, in vivo
[11] = test system: ovarian and breast cancer; conditions: cited from earlier work
Kaposi's sarcoma [12] = conditions: […]^2 to 175 mg/m^2 over three hours, every 21 days; cited from earlier work
bone marrow suppression [13] = experiment: G-CSF use in the clinical trial patients
[14] = 75 mg/m^2 every two weeks, three hour infusion
[15] = 33 evaluable, 100 mg/m^2 iv every 2 weeks
[16] = of patients with no G-CSF prior to paclitaxel

## CC(=O)O[C@H]1C(=O)[C@@]2(C)[C@H]([C@H](OC(=O)c3ccccc3)[C@]3(O)C[C@H](OC(=O)[C@H](O)[C@@H](NC(=O)c4ccccc4)c4ccccc4)C(C)=C1C3(C)C)[C@]1(OC(C)=O)CO[C@@H]1C[C@@H]2O [paclitaxel]
[1]; P1(0.5), KS Y-1 P105, treated day 1 and 3, counted day 5 or 6
  IC50: 2 to 3 ng/mL (≈ 2.34 to 3.51 nM)
[1]; in vitro
  sensitivity of KS cells to paclitaxel in vitro: as sensitive to paclitaxel as human ovarian cell lines; also recorded: unusual sensitivity
KS Y-1 cells
  tumor growth: markedly inhibited
Kaposi's sarcoma [2]; 35 mg/m^2, after relapse
  disease status after one cycle: stable
Kaposi's sarcoma [2]; 75 mg/m^2 every two weeks
  number of doses to complete tumor resolution: five
  period to complete tumor resolution: eight
Kaposi's sarcoma [2]; [14]
  response: remarkable response with resolution of KS, oozing, foul smell and edema
  toxicities experienced: skin itching and moderate hair loss
Kaposi's sarcoma [2]; 75 mg/m^2 every two weeks, three hour infusion, no G-CSF
  bone marrow suppression and neutropenia: lack of bone marrow suppression and accompanying neutropenia
Kaposi's sarcoma [2]; after 75 mg/m^2 every two weeks
  biopsy of the area of skin tumor: lack of KS pathologically
Kaposi's sarcoma [2]; paclitaxel alone and in combination with liposomally encapsulated doxorubicin for five months
  remission after the last combination chemotherapy treatment: eight
Kaposi's sarcoma [3]; 35 mg/m^2 every 2 weeks
  KS lesions three months after initiation of the lower dose: completely flat (Clinical Complete Remission)
  tolerability: well tolerated, and their hair grew back while on therapy
Kaposi's sarcoma [3]; 75 mg/m^2
  hair loss: severe hair loss
  response to the first dose: rapid response
Kaposi's sarcoma [3]; after single dose of 75 mg/m^2, 32 lesions prior to paclitaxel
  lesion count on the left forearm: 12 lesions
Kaposi's sarcoma [3]; after single dose of 75 mg/m^2, all 32 raised prior to therapy
  raised lesions on the left forearm: two
Kaposi's sarcoma [4]
  patients with partial or complete response: five of the ten
  responses in patients who had previously failed chemotherapy: Responses were observed
  responses in patients with otherwise fatal pulmonary disease: Responses were also observed
  tolerability: well tolerated
  tumor associated edema: resolution of tumor associated edema was observed
AIDS-KS [5]
  Cycles to response, range: 3-9 cycles
  Median cycles to response: 3 cycles
AIDS-KS [5]; 19 evaluable
  Complete response (count): 1
  Complete response (percent): 5%
  Minimal response/stable disease (count): 6
  Minimal response/stable disease (percent): 32%
  Partial response (count): 12
  Partial response (percent): 63%
  Progression (count): 0
AIDS-KS [5]; n = 20
  Anemia, Grade 2 (count): 6
  Anemia, Grade 2 (percent): 30%
  Anemia, Grade 3 (count): 0
  Anemia, Grade 4 (count): 0
  Diarrhea, Grade 3: 0
  Diarrhea, Grade 4: 0
  Fevers, Grade 3: 1
  Fevers, Grade 4: 0
  Myalgia, Grade 3: 0
  Nausea/Vomiting, Grade 1/2: 8
  Neuropathy, Grade 3: 0
  Neuropathy, Grade 4: 0
  Neutropenia, Grade 2 (count): 4
  Neutropenia, Grade 2 (percent): 20%
  Neutropenia, Grade 3 (count): 2
  Neutropenia, Grade 3 (percent): 10%
  Neutropenia, Grade 4 (count): 3
  Neutropenia, Grade 4 (percent): 15%
  Rash ± Pruritus, Grade 1/2: 9
  Rash ± Pruritus, Grade 3: 0
  Thrombocytopenia, Grade 2 (count): 0
  Thrombocytopenia, Grade 3 (count): 0
  Thrombocytopenia, Grade 4 (count): 0
[6]
  Cmax: 100 to 1000 nM
Kaposi's sarcoma [7]; 50-100 mg/m^2, three hour bolus, would be expected
  length of time peak levels are achieved: less than 15 hours
Kaposi's sarcoma [7]; AUC 1-4 μM/hour, three hour bolus of 50-100 mg/m^2 every 14 days
  myelosuppression: not observed
Kaposi's sarcoma [7]; peak levels maintained at 15 hours or less
  unwanted hematological and non-hematological side effects: absent
Kaposi's sarcoma [7]; threshold level 0.1-1 μM for shorter periods, AUC 1-4 μM/hour
  neutropenia and other side effects: reduce neutropenia and other side effects
Kaposi's sarcoma [8]; 100 mg/m^2 every 2 weeks
  effectiveness in KS versus other tumors: more effective therapeutically to KS compared to any other tumor studied thus far in the clinic
  tolerability: extremely well tolerated
Kaposi's sarcoma [8]; 35-100 mg/m^2 every 10-16 days
  median duration of response: greater than 20 weeks
  median time to achieve partial response: 6-10 weeks
  median time to achieve partial response (cycles): 3-5 cycles
Kaposi's sarcoma [8]; aside from mild to moderate hair loss and occasional other mild toxicities
  side effects: the lack of side effects is extraordinary
Kaposi's sarcoma [8]; compared to all previously studied drugs and combinations
  duration of response as reflected by the median number of cycles tolerated, versus all previously studied drugs: two fold longer
Kaposi's sarcoma [8]; up to
  duration of response, range: up to 60 weeks
AIDS-KS [9]; 100 mg/m^2 iv every 2 weeks
  Cycles to response, range: 3-9 cycles
  Median cycles to response: 5 cycles
  median duration of response: ≥ 5 months
AIDS-KS [9]; [15]
  Complete response (count): 0
  Minimal response/stable disease (count): 12
  Minimal response/stable disease (percent): 34%
  Partial response (count): 23
  Partial response (percent): 66%
  Progression (count): 0
AIDS-KS [9]; not reached
  Median Survival: > 6 months
AIDS-KS [9]; preliminary results
  activity in patients with prior systemic chemotherapy: confirmed
Bone marrow suppression [10]
  Any G-CSF use (percent): 69%
  Never required G-CSF (percent): 48%
  patients who did not require G-CSF: approximately 50%
[11]; 3-96 hour infusion, every 3-4 weeks
  dose generally required to obtain responses: 175-200 mg/m^2
[11]; Wiernak, et al.
  threshold peak level necessary for pharmaceutical effect: 0.1 µM
Kaposi's sarcoma [12]
  myelosuppression: increased incidents of myelosuppression
Bone marrow suppression [13]; n = 43
  Any G-CSF use (fraction): 30/43
Bone marrow suppression [13]; [16]
  Never required G-CSF (fraction): 13/27
  Required G-CSF after start of paclitaxel therapy (fraction): 14/27
Bone marrow suppression [13]; patients who did not require G-CSF
  bone marrow suppression (including neutropenia): not observed

## bleomycin
Kaposi's sarcoma [2]; combination chemotherapy of bleomycin, vincristine and adriamycin
  pneumonitis: pneumonitis with bilateral diffuse infiltration
